Laboratory results as given in US20260069529A1 (BLIS TECHNOLOGIES LIMITED, priority 2022, published 2026).

How the values were obtained:
Micrococcus luteus Q24 [1] = assay: Inhibition by potential prebiotics, spot on lawned CABK12 agar (prebiotic MIC); assay type: cell-based; settings: 24 hours 37° C. 5% CO2; for Suitable to be used in Q24 containing product?: aqueous substances 100% to 0.3%, oils 100% only
Description: CABK12 agar plates were split into segments of 6 and […] suspension of Micrococcus luteus […] raw ingredient. Each of the aqueous potential prebiotic substances to be screened were serially diluted in a range of concentrations from 100% to 0.3% using sterile distilled water. Oil based substances were tested at 100% only. 20 μL of each concentration, of each substance were pipetted into a spot onto one segment of the […]12 agar plate and was incubated for 24 hours at 37° C. 5% CO2 in air.

Micrococcus luteus Q24 [2] = assay: Effect of prebiotics on the growth of Micrococcus luteus Q24 in M17 broth; assay type: cell-based; settings: at 24 hours
Description: A batch of M17 broth (Difco #218561) was made, excluding the lactose solution, by following the manufacturer's instructions. 50 ml of broth was dispensed into sterile 100 ml Schott bottles and 2.5 g (5% w/v) of each potential prebiotic substance was added and mixed well using a magnetic stirrer and stir plate. The mixtures were autoclaved at 110° C. for 10 minutes and allowed to cool.
The suspensions of the prebiotic candidates were prewarmed to 40° C. in order to allow for increased homogenisation of any oil-based components prior to dispensing into the wells. 2 ml of each suspension and an M17 only (control) were pipetted into a sterile 24 well tissue culture plate. […] 100 μl of the suspension was pipetted into each well. Once the suspension was added each well was mixed by aspirating and dispensing the solution 5 times with a 1 ml pipette.
Each sample was enumerated at time points 0, 3, 6, 15, 26 and 34 hours using the following method. […] The number of colonies in each spot were then counted using an electronic colony counter and average to give the final result.
The same method was used as described above except the time points tested were 0, 6, 18 and 24 hours. Olive squalene was selected as one of the preferred prebiotics with 3 others that were analysed in combination with olive squalene and compared to the results of the prebiotic candidates alone (FIG. 17).

IL-18 = assay: EpiDerm safety and efficacy experiment, cytokine quantification IL-18; assay type: cell-based, human; settings: daily treatment 4 days; Q24 1×10^8 CFU/ml, vitamin C 50 μg/mL
Description: (§1) The remaining 6 tissues, which were destined for histology or else to receive 5% SDS, were grouped together on the sixth cell culture plate. […] Vitamin C (50 μg/mL) was instead delivered in the culture medium. On day 4 conditioned media samples were collected and stored frozen at −80° C. for cytokine measurement. 33 of the tissues were then exposed for 30 μL of 0.5% or 5% SDS in PBS, or to PBS as negative control. […] The remaining 3 tissues (destined for histology) were simply fed fresh medium and given the appropriate main treatment. […] All tissues were gently rinsed with PBS and the 3 histology tissues were fixed in neutral buffered formalin. The viabilities of the other 33 tissues were assessed using the MTT viability assay.
(§2) For quantification of IL-1β, IFN-α2, IFN-γ, TNF-α, MCP-1 (CCL2), IL-6, IL-8 (CXCL8), IL-10, IL-12p70, IL-17A, IL-18, IL-23, and IL-33, bead-based multiplex LEGENDplex™ analysis (LEGENDplex™ Human Inflammation Panel 1 (13-plex); BioLegend, San Diego, CA, USA) was used according to the manufacturer's instructions. The relevance of each of the measured cytokines for which activity was observed is described in Table 6. Reactions were performed in duplicate. Analysis was performed with the Cytek™ Aurora flow cytometer (Cytek Biosciences Inc., Fremont, CA, USA). Data were analysed via Legendplex V8.0 software (BioLegend) and specified as pg/mL.

IL-6 = assay: EpiDerm safety and efficacy experiment, cytokine quantification IL-6; assay type: cell-based, human
Description: as §1, §2

IL-8 (CXCL8) = assay: EpiDerm safety and efficacy experiment, cytokine quantification IL-8; assay type: cell-based, human; settings: daily treatment 4 days; Q24 1×10^8 CFU/ml, vitamin C 50 μg/mL
Description: as §1, §2

| Molecule | Suitable to be used in Q24 containing product? (Micrococcus luteus Q24 [1]) | also measured |
| --- | --- | --- |
| NC(=O)NC1NC(=O)NC1=O (centres unmarked) [Allantoin] | Yes | – |
| CC(O)C(=O)O (centres unmarked) [Lactic acid (LA), Lactic acid] | No | Inhibitory concentration against Micrococcus luteus Q24 (Micrococcus luteus Q24 [1]): > 2.5% |
| NC(=O)c1cccnc1 [Niacinamide] | Yes | – |
| CC(C)=CCC/C(C)=C/CC/C(C)=C/CC/C=C(\C)CC/C=C(\C)CCC=C(C)C [Olive Squalene] | Yes | – |
| CC1=C(/C=C/C(C)=C/C=C/C(C)=C/CO)C(C)(C)CCC1 [Retinol (Vitamin A), Retinol] | Yes | – |
| O=C(O)c1ccccc1O [Salicylic acid (SA), Salicylic acid] | No | Inhibitory concentration against Micrococcus luteus Q24 (Micrococcus luteus Q24 [1]): > 5% |
| Cc1c(C)c2c(c(C)c1O)CC[C@@](C)(CCC[C@H](C)CCC[C@H](C)CCCC(C)C)O2 [Vitamin E, D Alpha Tocopherol 1000 IU, D Alpha Tocopherol] | Yes | – |
| OC[C@@H](O)[C@H](O)[C@@H](O)CO [Xylitol] | Yes | Effect on live Micrococcus luteus Q24 cell count (Micrococcus luteus Q24 [2]): detrimental |
| O=C1O[C@H]([C@@H](O)CO)C(O)=C1O [vitamin C, Ascorbic acid] | Yes | IL-18 levels day 4 vs day 0 (IL-18): trend for lower values on day 4; IL-6 levels day 4 vs day 0 (IL-6; daily treatment 4 days, Q24 1×10^8 CFU/ml, vitamin C 50 μg/mL): slight but significant increase on day 4; IL-6 released in response to 0.5% SDS (IL-6; pre-treatment 4 days, day 5 vs day 4): slight increase on day 5; IL-8 levels day 4 vs day 0 (IL-8 (CXCL8)): unchanged |
| Hyaluronic acid | Yes | – |
